Results taken from US6627732B1, “Glutathione derivatives and their dosage forms” (Teijin Limited, priority 1998, dated 2003).

What was measured:
swine liver esterase = assay: Decomposition by swine liver esterase with and without fat emulsion (Example 22); type: in vitro ADME; settings: for Decomposition rate constant in the absence of the fat emulsion: alcohol solution with physiological saline; for Decomposition rate constant in the presence of the fat emulsion: fat emulsion added at 15 (v/v)%
Experimental: The glutathione derivative combined with a fat emulsion was incubated with swine liver esterase to compare the resistance to decomposition.
Thereupon, the concentration of the glutathione derivatives of Comparative Examples 1 and 2 in the fat emulsion were each adjusted to 1 mg/ml.
After incubation for a fixed time in a similar manner to that in Example 19, the content of the glutathione derivative was quantitated by HPLC. As the control experiment, an alcohol solution of the glutathione derivative of Example 4, Comparative Example 1 or 2 was added to the esterase reaction mixture together with physiological saline for adjustment of the total volume, and incubated similarly and analyzed by HPLC.
(3) Since a linear disappearance curve was observed as in Example 19, each decomposition rate constant was determined and was compared, which was summarized in Table 6.

[1] = Pharmacokinetics after intravenous administration to rabbits, 2-compartment model (Example 25); type: in vivo, rabbit; settings: iv auricular vein 2 ml/kg, fat emulsion (Comparative Ex. 1: HPCD/glucose solution)
Text: For the glutathione derivative of the present invention having a long-chain ester having 12 carbons or more and the glutathione derivatives of the conventional technology of Comparative Examples 1 and 2, kinetics in the blood were compared in rabbits that are a species having allow esterase activity in the blood.
(1) Male Japanese white rabbits, 12-week old or older, were purchased from Ichikawaya, and those rabbits that became 15-week old or older and whose body weight reached about 3 kg were used for the experiment. During the period up to the experiment, the animals were allowed free access to the animal feed and drinking water and were kept at a temperature of 24±2° C. and a humidity of 55±5%.
(2) The glutathione derivative having a long-chain ester of 12 carbons or more and the glutathione derivative of Comparative Example 2 were prepared at 20-200 mg/ml in a mixture of ethanol or ethanol:benzyl alcohol, which was mixed with the fat emulsion just prior to use, and was filtered with a 1.2 μm filter to obtain a liquid for intravenous administration. On the other hand, the glutathione derivative of Comparative Example 1 was dissolved in an aqueous solution of 6%-hydroxypropyl-β-cyclodextrin/5%-glucose at 15 mg/ml to obtain an administration liquid.
(3) The administration liquid of the glutathione derivative obtained in (2) at a dose of 2 ml/kg was rapidly infused into the left auricular vein of the rabbits under no anesthesia and under restraint at a rate of 1 ml/min. Each glutathione derivative was given to three or more rabbits. At 5, 10, 15, 30, 60, 120, and 240 minutes after the completion of the administration, 1 ml of the blood was drawn from the right auricular vein in the presence of heparin, which was immediately cooled on ice. Plasma was obtained by centrifuging the blood, 1-2 volume parts of acetonitrile was added to deproteinize the supernatant, which was filtered by a 0.5 μm filter. The supernatant of the filtrate was quantitated by HPLC.

[2] = system: rat models of suppressed hematopoietic function by 5-FU administration; assay: Recovery of neutrophil counts in rat models of suppressed hematopoietic function by 5-FU (Example 26); type: in vivo; settings: 5-FU rats, days 2-10
Text: Regarding the effect of promoting the recovery of neutrophil counts in rat models of suppressed hematopoietic function by 5-fuluorouracil administration, statistical significance was compared to the control group to compare the pharmaceutical composition containing Example 4 of the present invention as an active ingredient with the pharmaceutical composition of the conventional technology of Comparative Example 1 and granulocyte colony-stimulating factor (G-CSF).
(1) Animals used and the keeping condition: Male SD rats, 6-week old, purchased from Nippon SLC were used. The animal feed (manufactured by Oriental Yeast Co., Ltd.) and drinking water (well water treated with 0.4±0.2 ppm hypochlorous acid) were given ad libitum during the period of the experiment. The animals were housed in a hanging-type rat cage (manufactured by Nippon Cage K.K.) and kept at a temperature of 24±2° C. and a humidity of 55±5%.
(2) Creation of rat models of suppressed hematopoietic function by 5-FU administration; Creation of rat models of suppressed hematopoietic function by 5-FU (Kyowa Hakko Kogyo Co. Ltd.) administration was carried out based on the method of Akamatsu et al. (Yakuri to Chiryo(Pharmacology and Therapy), 18. (Suppl. 9), 317-356 (1990)). Thus, on the first day of the experiment, 5-FU at 50 mg/kg-body weight (dosage volume is 1 ml/kg-body weight) or the same amount of physiological saline (manufactured by Fuso Pharmaceuticals Industries, Ltd.) was intraperitoneally administered to the rats described in (1). On days 4, and 7-12, blood was drawn from the jugular vein and the EDTA-2K-treated blood was obtained. The blood was used to determine the neutrophil count using a general chemistry test instrument (Technicon H-1E, manufactured by Bayer-Sankyo K.K.) and the ratio of reticulocytes using a reticulocyte determination instrument (EPICS, XL-MCL, manufactured by Coulter K.K.). Blood was also drawn on day 1 of the experiment, and the values determined for the blood were used as the pre-administration values.
In the physiological saline administration group, no changes in neutrophil count were observed throughout the experiment period, whereas in the 5-FU administration group there was a reduction in neutrophil count with the lowest value observed on day 8 of the experiment, and the neutrophil count was recovered to the value before 5-FU administration or higher on day 10 of the experiment or after. The above results confirmed that rat models of suppressed hematopoietic function can be created by a single intraperitoneal administration of 5-FU at 50 mg/kg-body weight.
(3) Evaluation of Example 4 and Comparative Example 1 in the above model; To the model described in (2), the glutathione derivative of Example 4 combined with the fat emulsion at 10 to 30 mg/kg-body weight/day or the glutathione derivative of Comparative Example 1 dissolved in a physiological saline containing 2.5% hydroxypropyl-β-cyclodextrin at 50 mg/kg-body weight/day was repeatedly administered into the tail vein for 9 days from day 2 to 10 of the experiment. The recombinant human G-CSF formulation (hereinafter referred to as G-CSF, manufactured by Chugai Pharmaceutical Co., Ltd.) as the positive control at 10 μg/kg-body weight/day and the empty fat emulsion as the negative control were administered in a similar manner. […]

Stability in rat plasma = type: in vitro ADME; settings: for Half life in rat plasma: heparinized plasma, diluted as needed with BSA/D-PBS, 250-323 μg/ml
Experimental: Rat, rabbit, and human plasma
Heparinized plasma: 30 to 40 parts
(rat plasma was diluted, as needed, with 30 mg-BSA/ml-D-PBS (pH 7.4) for use)

Compound: CCOC(=O)[C@@H](N)CCC(=O)N[C@@H](CSCc1ccccc1)C(=O)N[C@@H](C(=O)OCC)c1ccccc1.Cl [Comparative Example 1, Glu(Cys(Bzl)-D-Phg-O(Et))-O(Et)hydrochloride, reference compound]
- Ratio of decomposition rate constant (in the presence of the fat emulsion/physiological saline) (swine liver esterase): 0.609
- Decomposition rate constant in the absence of the fat emulsion (swine liver esterase): 1.206 × 10^−2 /unit/min
- Decomposition rate constant in the presence of the fat emulsion (swine liver esterase): 7.343 × 10^−3 /unit/min
- Clearance per body weight [1]: 15.27 L/h/kg
- Distribution volume per body weight of the central compartment [1]: 0.80 L/kg
- Neutrophil counts relative to the negative control group ([2]; HPCD solution 50 mg/kg-body weight/day iv, significant (5%) on day 12 only): no changes were observed compared to the negative control group
- Stability in biological sample solutions such as rat blood (Stability in rat plasma): very unstable
- Half life in rat plasma (Stability in rat plasma): 7.8 s
- Half life in the plasma of experimental animals (Stability in rat plasma; mice and rats): extremely short half life

Compound: CCCCCCCCOC(=O)[C@H](NC(=O)[C@H](CSCc1ccccc1)NC(=O)CC[C@H](N)C(=O)OCC)c1ccccc1.Cl [Comparative Example 2, Glu(Cys(Bzl)-D-Phg-O(Octyl))-O(Et)hydrochloride, reference compound]
- Ratio of decomposition rate constant (in the presence of the fat emulsion/physiological saline) (swine liver esterase): 0.454
- Decomposition rate constant in the absence of the fat emulsion (swine liver esterase): 3.638 × 10^−2 /unit/min
- Decomposition rate constant in the presence of the fat emulsion (swine liver esterase): 1.650 × 10^−2 /unit/min
- Clearance per body weight [1]: 9.34 L/h/kg
- Distribution volume per body weight of the central compartment [1]: 4.18 L/kg
- Half life in rat plasma (Stability in rat plasma): 12.6 s

Compound: CCCCCCCCCCCCCCCCOC(=O)[C@@H](N)CCC(=O)N[C@@H](CSCc1ccccc1)C(=O)N[C@@H](C(=O)OCC)c1ccccc1.Cl [Example 4, Glu(Cys(Bzl)-D-Phg-OEt)-O(Hexadecyl)hydrochloride]
- Ratio of decomposition rate constant (in the presence of the fat emulsion/physiological saline) (swine liver esterase): 0.185
- Decomposition rate constant in the absence of the fat emulsion (swine liver esterase): 1.100 × 10^−4 /unit/min
- Decomposition rate constant in the presence of the fat emulsion (swine liver esterase): 2.033 × 10^−5 /unit/min
- Clearance per body weight [1]: 0.20 L/h/kg
- Distribution volume per body weight of the central compartment [1]: 0.06 L/kg
- Neutrophil counts relative to the negative control group ([2]; fat emulsion 10 mg/kg-body weight/day iv): No changes were observed
- Neutrophil counts relative to the negative control group ([2]; fat emulsion 20 mg/kg-body weight/day iv, days 9 to 11, significance 1% to 0.1%): statistically significant increase
- Neutrophil counts relative to the negative control group ([2]; fat emulsion 30 mg/kg-body weight/day iv, from day 8, significance 5%-0.1%): statistically significant increase
- Half life in rat plasma (Stability in rat plasma): 9240 s
